For test [1], the target named is Kelch domain of human KEAP1 (321-624 aa) (Homo sapiens (Human), UniProt Q14145). Put plainly: KEAP1 KELCH ThermoFluor binding assay.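 Further: Ligand-induced melting temperature shift of E. coli-expressed KEAP1 Kelch protein, Kd estimated from concentration-response curves of ΔTm.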 The following applies: KEAP Kelch […], 1,8-ANS, pH 7.0, average of results obtained, read-out: Tf Kd. For orientation: DSF heats the sample and reads unfolding from a dye or from intrinsic fluorescence.
Test [2] deals with Glo-Response ARE-luc2P HEK293 cell line. Put plainly: ARE luciferase reporter cell-based assay.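 Further: luciferase signal tracks Nrf2 activation of the ARE once compounds disrupt KEAP1-Nrf2 binding, read with One-Glo reagent, DMSO serving as low control.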 Conditions: Homo sapiens, HEK293, 24 h, average of results obtained. Background: Reporter assays use an easily measured gene product as a stand-in for the process of interest.

SMILES strings stand for the structures.

Chain of Kelch domain of human KEAP1 (321-624 aa) (Q14145 321-624): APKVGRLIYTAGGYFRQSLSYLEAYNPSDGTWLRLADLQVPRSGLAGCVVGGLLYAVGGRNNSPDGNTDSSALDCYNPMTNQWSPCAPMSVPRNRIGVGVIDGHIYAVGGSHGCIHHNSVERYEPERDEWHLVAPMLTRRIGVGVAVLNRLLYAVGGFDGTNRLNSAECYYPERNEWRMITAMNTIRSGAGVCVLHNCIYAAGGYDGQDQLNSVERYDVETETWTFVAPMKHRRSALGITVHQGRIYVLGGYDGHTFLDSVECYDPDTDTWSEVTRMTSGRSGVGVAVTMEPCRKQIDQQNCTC

As to `Cc1ccc([C@H](CC(=O)O)c2ccn3c(C(F)F)nnc3c2C)cc1CN1C[C@H]2COCCN2c2ncccc2S1(=O)=O` (single isomer, unassigned) [Example 461, (*S)-3-(3-(Difluoromethyl)-8-methyl-[1,2,4]triazolo[4,3-a]pyridin-7-yl)-3-(3-(((*S)-5,5-dioxido-7a,8,10,11-tetrahydro-[1,4]oxazino[3,4-d]pyrido[2,3-f][1,2,5]thiadiazepin-6(7H)-yl)methyl)-4-methylphenyl)propanoic Acid], the Kd (commonly the free concentration of one partner at which half of the binding sites on the other are occupied at equilibrium, for simple one-to-one binding) in test [1] amounted to 1.19 nM. Further, in test [2], the EC50 (usually the midpoint of the concentration-response curve) amounted to 68.7 nM.
With `CCn1nnc2c(C)c(C(CC(=O)O)c3ccc(C)c(CN4C[C@H]5CCCCN5c5ncccc5S4(=O)=O)n3)ccc21` (stereo in doubt) [Example 304, 3-(6-(((*R)-5,5-Dioxido-7,7a,8,9,10,11-hexahydro-6H-dipyrido[2,1-d:2′,3′-][1,2,5]thiadiazepin-6-yl)methyl)-5-methylpyridin-2-yl)-3-(1-ethyl-4-methyl-1H-benzo[d][1,2,3]triazol-5-yl)propanoic Acid], the Kd in test [1] is below 1 nM. The same molecule had a half-maximal effective concentration (EC50) in test [2] of 2.9 nM.
The corresponding values for `Cc1ccc([C@H](CC(=O)O)c2ccn3c(C(F)(F)F)nnc3c2C)cc1CN1CC2(CC2)Oc2nc(NCCO)ccc2S1(=O)=O` (single isomer, unassigned) [Example 101, (*S)-3-(3-((7′-((2-Hydroxyethyl)amino-1′,1′-dioxidospiro[cyclopropane-1.4′-pyrido[2,3-b][1,4,5]oxathiazepin]-2′(3′H)-yl)methyl)-4-methylphenyl)-3-(8-methyl-3-(trifluoromethyl)-[1,2,4]triazolo[4,3-a]pyridinn-7-yl)propanoic Acid] are below 1 nM and 577 nM.
With `Cc1ccc([C@@H](CC(=O)O)c2ccc3c(nnn3C3CC3)c2C)cc1CN1C[C@H]2CCCN2c2ncccc2S1(=O)=O` (single isomer, unassigned) [Example 211, (*R)-3-(1-Cyclopropyl-4-methyl-1H-benzo[d][1,2,3]triazol-5-yl)-3-(3-(((R)-5,5-dioxido-7a,8,9,10-tetrahydropyrido[2,3-f]pyrrolo[2,1-d][1,2,5]thiadiazepin-6(7H)-yl)methyl)-4-methylphenyl)propanoic Acid], in test [1], the Kd stood at 1.1 nM. Also, a half-maximal effect in test [2] (EC50) was put at 42 nM.
For `Cc1ccc([C@@H](c2ccn3c(C(F)(F)F)nnc3c2C)C(C)(C)C(=O)O)cc1CN1CC2(CCOCC2)Oc2nc(OCCN3CCCCC3)c(C)cc2S1(=O)=O` (single isomer, unassigned) [Example 126, 2,2-Dimethyl-3-(4-methyl-3-((8′-methyl-1′,1′-dioxido3-(3-((7′-(((*S)-4-hydroxybutan-2-yl)amino)-8′-methyl-1′,1′-dioxido-7′-(2-(piperidin-1-yl)ethoxy)-2,3,5,6-tetrahydrospiro[pyran-4,4′-pyrido[2,3-b][1,4,5]oxathiazepin]-2′(3′H)-yl)methyl)phenyl)-3-(8-methyl-3-(trifluoromethyl)-[1,2,4]triazolo[4,3-a]pyridine-7-yl)propanoic Acid], in test [1], the Kd is below 1 nM. The molecule also came in with an EC50 in test [2] of 6 nM.
Take `Cc1ccc([C@@H](c2ccn3c(C(F)F)nnc3c2C)C(C)(C)C(=O)O)nc1CN1CC2(COC2)Oc2ncccc2S1(=O)=O` (single isomer, unassigned) [Example 610, (*S)-3-(3-(Difluoromethyl)-8-methyl-[1,2,4]triazolo[4,3-a]pyridin-7-yl)-3-(6-((1′,1′-dioxidospiro[oxetane-3,4′-pyrido[2,3-b][1,4,5]oxathiazepin]-2′(3′H)-yl)methyl)-5-methylpyridin-2-yl)-2,2-dimethylpropanoic Acid]: the equilibrium dissociation constant (Kd) in test [1] was below 1 nM. Besides, the concentration for a half-maximal effect (EC50) in test [2] is 4.42 nM.
Regarding `CCc1nnc2c(C)c(C(CC(=O)O)c3ccc(C)c(CN4C[C@H]5CCCN5c5ccccc5S4(=O)=O)c3)ccn12` (stereo partly drawn) [Example 278, 3-(3-(((R)-5,5-Dioxido-7a,8,9,10-tetrahydrobenzo[f]pyrrolo[2,1-d][1,2,5]thiadiazepin-6(7H)-yl)methyl)-4-methylphenyl)-3-(3-ethyl-8-methyl-[1,2,4]triazolo[4,3-a]pyridin-7-yl)propanoic Acid], the Kd in test [1] was below 1 nM. For the same molecule, in test [2], the half-maximal effective concentration (EC50) is 467 nM.
Consider `Cc1cnc2c(c1)S(=O)(=O)N(Cc1cc([C@H](c3ccn4c(C(F)(F)F)nnc4c3C)C(C)(C)C(=O)O)ncc1C)CC1(CC1)O2` (single isomer, unassigned) [Example 589, (*R)-2,2-Dimethyl-3-(8-methyl-3-(trifluoromethyl)-[1,2,4]triazolo[4,3-a]pyridin-7-yl)-3-(5-methyl-4-((8′-methyl-1′,1′-dioxidospiro[cyclopropane-1,4′-pyrido[2,3-b][1,4,5]oxathiazepin]-2′(3′H)-yl)methyl)pyridin-2-yl)propanoic Acid], for which the Kd in test [1] was 1450 nM. A half-maximal effect in test [2] (EC50) was put at 1970 nM.
Consider `Cc1ccc([C@@H](CC(=O)O)c2ccn3c(C(F)(F)F)nnc3c2C)cc1CN1CC2(CC2)N(C)c2ncccc2S1(=O)=O` (single isomer, unassigned) [Example 185, (*R)-3-(4-Methyl-3-((5′-methyl-1′,1′-dioxido-5′H-spiro[cyclopropane-1,4′-pyrido[2,3-f][1,2,5]thiadiazepin]-2′(3′H)-yl)methyl)phenyl)-3-(8-methyl-3-(trifluoromethyl)-[1,2,4]triazolo[4,3-a]pyridin-7-yl)propanoic Acid], for which the equilibrium dissociation constant (Kd) in test [1] was 12 nM. In test [2], this molecule registered a concentration for a half-maximal effect (EC50) of 2720 nM.
As for `Cc1ccc([C@@H](c2ccn3c(C(F)F)nnc3c2C)C(C)(C)C(=O)O)nc1CN1CC2(CC2)Oc2nc(OCCN3CCCCC3)c(C)cc2S1(=O)=O` (single isomer, unassigned) [Example 356, (*S)-3-(3-(Difluoromethyl)-8-methyl-[1,2,4]triazolo[4,3-a]pyridin-7-yl)-2,2-dimethyl-3-(5-methyl-6-((8′-methyl-1′,1′-dioxido-7′-(2-(piperidin-1-yl)ethoxy)spiro[cyclopropane-1,4′-pyrido[2,3-b][1,4,5]oxathiazepin]-2′(3′H)-yl)methyl)pyridin-2-yl)propanoic Acid], in test [1], the Kd stood at 3550 nM. Also, a half-maximal response in test [2] (EC50) required 11.8 nM.
As for `CCn1nnc2c(C)c([C@H](CC(=O)O)c3ccc(C)c(CN4CC5(CCOCC5)Oc5ccc(F)cc5S4(=O)=O)n3)ccc21` (single isomer, unassigned) [Example 418, (*S)-3-(1-ethyl-4-methyl-1H-benzo[d][1,2,3]triazol-5-yl)-3-(6-((8-fluoro-1,1-dioxido-2′,3′,5′,6′-tetrahydrospiro[benzo[b][1,4,5]oxathiazepine-4,4′-pyran]-2(3H)-yl)methyl)-5-methylpyridin-2-yl)propanoic Acid], in test [1], the Kd is below 1 nM. In test [2], this molecule displayed an EC50 of 0.96 nM.
Turning to `Cc1ccc(C(CC(=O)O)c2ccc3c(nnn3C3CC3)c2C)cc1CN1C[C@@H]2CCCCN2c2ncccc2S1(=O)=O` (single isomer, unassigned) [Example 399, (*R)-3-(1-Cyclopropyl-4-methyl-1H-benzo[d][1,2,3]triazol-5-yl)-3-(3-(((*S)-5,5-dioxido-7,7a,8,9,10,11-hexahydro-6H-dipyrido[2,1-d:2′,3′-][1,2,5]thiadiazepin-6-yl)methyl)-4-methylphenyl)propanoic Acid], the dissociation constant Kd in test [1] was below 1 nM. Moreover, in test [2], it took 92.9 nM to reach a half-maximal effect (EC50).
In the case of `Cc1cnc2c(c1)S(=O)(=O)N(Cc1cc([C@@H](c3ccn4c(C(F)(F)F)nnc4c3C)C(C)(C)C(=O)O)ccc1C)CC1(COC1)O2` (single isomer, unassigned) [Example 614, (*S)-2,2-dimethyl-3-(4-methyl-3-((8′-methyl-1′,1′-dioxidospiro[oxetane-3,4′-pyrido[2,3-b][1,4,5]oxathiazepin]-2′(3′H)-yl)methyl)phenyl)-3-(8-methyl-3-(trifluoromethyl)-[1,2,4]triazolo[4,3-a]pyridine-7-yl)propanoic Acid], the Kd in test [1] is below 1 nM. The molecule also registered an EC50 in test [2] of 0.71 nM.
Turning to `Cc1ccc([C@@H](c2ccn3c(C(F)(F)F)nnc3c2C)C(C)(C)C(=O)O)cc1CN1CC2(CCOCC2)Oc2nc(OCCN3CCCC3)c(C)cc2S1(=O)=O` (single isomer, unassigned) [Example 370, (*S)-2,2-Dimethyl-3-(4-methyl-3-((8′-methyl-1′,1′-dioxido-7′-(2-(pyrrolidin-1-yl)ethoxy)-2,3,5,6-tetrahydrospiro[pyran-4,4′-pyrido[2,3-b][1,4,5]oxathiazepin]-2′(3′H)-yl)methyl)-4-methylphenyl)-2,2-dimethyl-3-(8-methyl-3-(trifluoromethyl)-[1,2,4]triazolo[4,3-a][pyridine-7-yl)propanoic Acid], the equilibrium dissociation constant (Kd) in test [1] is below 1 nM. The molecule also showed a 50% effective concentration (EC50) in test [2] of 11.3 nM.
For `Cc1ccc([C@@H](c2ccn3c(C(F)(F)F)nnc3c2C)C(C)(C)C(=O)O)cc1CN1CC2(CC2)Oc2nc(OCCN3CCC3)c(C)cc2S1(=O)=O` (single isomer, unassigned) [Example 604, (*S)-3-(3-((7′-(2-(Azetidin-1-yl)ethoxy)-8′-methyl-1′,1′-dioxidospiro[cyclopropane-1,4′-pyrido[2,3-b][1,4,5]oxathiazepin]-2′(3′H)-yl)methyl)-4-methylphenyl)-2,2-dimethyl-3-(8-methyl-3-(trifluoromethyl)-[1,2,4]triazolo[4,3-a]pyridine-7-yl)propanoic Acid], in test [1], the dissociation constant (Kd) is below 1 nM. This molecule also registered an EC50 in test [2] of 8.82 nM.
Regarding `Cc1ccc([C@@H](CC(=O)O)c2ccn3c(C(F)(F)F)nnc3c2C)nc1CN1CC2(CC2)Oc2ncccc2S1(=O)=O` (single isomer, unassigned) [Example 482, (*S)-3-(6-((1′,1′-Dioxidospiro[cyclopropane-1,4′-pyrido[2,3-b][1,4,5]oxathiazepin]-2′(3′H)-yl)methyl)-5-methylpyridin-2-yl)-3-(8-methyl-3-(trifluoromethyl)-[1,2,4]triazolo[4,3-a]pyridin-7-yl)propanoic Acid], the Kd in test [1] was below 1 nM. This molecule also gave an EC50 in test [2] of 701 nM.

(Values after patent US10947252B2, “Inhibitors of KEAP1-Nrf2 protein-protein interaction” (Janssen Pharmaceutica NV, priority 2018, dated 2021).)
